Reference: paper PMC7369900 (International Journal of Molecular Sciences, 2020)
Values after ≈ are worked out from the molar mass of the structure shown.

Assays:
P. aeruginosa ATCC 27853 = test: microbe, parasite or virus in culture; format: cell-based, Pseudomonas aeruginosa; conditions: Pseudomonas aeruginosa, ATCC27853; P. aeruginosa ATCC 27853, MHB
Experimental: (§1) The antibacterial activity of TP10-NH2-based conjugates, as well as its constituents, was evaluated by microdilution assay in Mueller Hinton broth, MHB (Table 1). […] There are, however, some exceptions. […] Its activity against two other tested bacteria was somewhat lower though.
(§2) The antibacterial activity (bacteriostatic: MIC and bactericidal: MBC) of the tested compounds was determined in MHB (Mueller Hinton Broth, Sigma Aldrich, St. Louis, MO, USA) using a serial two-fold dilution method in 96-well microtiter plates according to CLSI recommendations, described in M07-A10 document. The exact conditions have been described previously. All experiments were performed in three replicates. The MIC90 and MIC50 values were defined as the concentrations of compounds tested that caused a 90% or 50% reduction of growth, respectively, comparing to the drug-free control.

S. aureus ATCC 29,213 = test: Resistance induction by serial passage on MHA plates; format: cell-based, Staphylococcus aureus; conditions: passaged with CIP 0.1875 μM or 3 0.375 μM
E. coli ATCC 25922 = test: microbe, parasite or virus in culture; format: cell-based, Escherichia coli; conditions: Escherichia coli, ATCC25922; E. coli ATCC 25922, MHB
Experimental: as §1, §2

[1] = target: T1, yeast DNA topoisomerase II (Saccharomyces cerevisiae, UniProt P06786); test: biochemical; format: biochemical; conditions: 500 µM
T1 construct: purchased Inspiralis (Norwich, UK)
T1 sequence (P06786 whole entry): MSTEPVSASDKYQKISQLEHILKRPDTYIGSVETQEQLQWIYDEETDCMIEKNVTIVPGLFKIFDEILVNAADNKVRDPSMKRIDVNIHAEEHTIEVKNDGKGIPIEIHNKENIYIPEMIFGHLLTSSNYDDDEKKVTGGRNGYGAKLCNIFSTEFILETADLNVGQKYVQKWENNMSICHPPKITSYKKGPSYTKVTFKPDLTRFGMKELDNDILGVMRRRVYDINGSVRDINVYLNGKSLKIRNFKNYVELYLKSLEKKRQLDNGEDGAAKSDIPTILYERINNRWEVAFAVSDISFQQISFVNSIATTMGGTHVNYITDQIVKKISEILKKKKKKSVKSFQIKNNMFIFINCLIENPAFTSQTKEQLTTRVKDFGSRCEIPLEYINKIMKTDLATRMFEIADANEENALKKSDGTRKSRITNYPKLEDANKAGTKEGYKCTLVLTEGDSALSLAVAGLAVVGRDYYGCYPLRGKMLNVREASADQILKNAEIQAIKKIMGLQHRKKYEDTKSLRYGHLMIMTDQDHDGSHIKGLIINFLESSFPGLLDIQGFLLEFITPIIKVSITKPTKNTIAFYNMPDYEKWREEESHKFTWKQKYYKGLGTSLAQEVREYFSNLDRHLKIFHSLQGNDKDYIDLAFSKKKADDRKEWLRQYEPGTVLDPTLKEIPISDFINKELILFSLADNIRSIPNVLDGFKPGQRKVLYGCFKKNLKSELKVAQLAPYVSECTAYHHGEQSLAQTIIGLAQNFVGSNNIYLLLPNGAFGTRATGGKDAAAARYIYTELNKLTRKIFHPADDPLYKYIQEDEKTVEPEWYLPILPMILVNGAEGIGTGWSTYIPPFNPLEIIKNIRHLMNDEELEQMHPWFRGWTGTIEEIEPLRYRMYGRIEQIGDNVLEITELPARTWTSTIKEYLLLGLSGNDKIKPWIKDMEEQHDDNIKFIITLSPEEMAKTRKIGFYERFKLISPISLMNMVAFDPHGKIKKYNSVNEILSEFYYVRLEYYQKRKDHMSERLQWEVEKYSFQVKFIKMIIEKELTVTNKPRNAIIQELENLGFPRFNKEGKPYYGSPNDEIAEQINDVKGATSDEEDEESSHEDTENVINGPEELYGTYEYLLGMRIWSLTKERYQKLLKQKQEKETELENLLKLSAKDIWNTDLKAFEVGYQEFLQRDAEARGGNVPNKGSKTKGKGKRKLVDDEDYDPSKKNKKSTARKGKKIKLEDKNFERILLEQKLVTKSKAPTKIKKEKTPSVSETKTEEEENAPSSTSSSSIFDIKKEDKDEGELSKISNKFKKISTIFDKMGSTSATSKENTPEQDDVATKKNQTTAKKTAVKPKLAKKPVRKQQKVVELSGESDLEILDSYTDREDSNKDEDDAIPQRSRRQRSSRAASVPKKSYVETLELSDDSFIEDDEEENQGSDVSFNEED

[2] = system: Gram-positive and Gram-negative bacteria; format: cell-based; conditions: MHB, four bacteria
Experimental: as §1, §2

human red blood cells = test: Hemolysis assay
S. aureus ATCC 29213 = test: microbe, parasite or virus in culture; format: cell-based, Staphylococcus aureus; conditions: Staphylococcus aureus, ATCC29213; S. aureus ATCC 29213, MHB
Experimental: as §1, §2

Hep G2 = test: cells; format: cell-based, human; conditions: Homo sapiens, HepG2; Hep G2, 72 h, MTT
Experimental: (§3) Among the conjugates, LVXC-S-S-CTP10-NH2 (5) was the least cytotoxic. […] In the case of HEK 293 and LLC-PK1 cells, the IC50 values of 5 were nearly four times higher. […] Additionally, we noted that the cancer cells Hep G2 were less sensitive to the action of the given compounds than the non-cancer cells (HEK 293 and LLC-PK1).
(§4) Cytotoxicity was assessed against three mammalian cell lines: LLC-PK1, Hep G2, and HEK 293. Multiwell (96–well) plates were seeded at 7000 cells/well in Medium 199 supplemented with 7.5% FBS, MEM Eagle’s medium supplemented with 10% FBS, or DMEM medium supplemented with 10% FBS, respectively. All media were supplemented with L-glutamine and antibiotics (penicillin/streptomycin). Cells were allowed to attach overnight. Drugs were dissolved in cell culture medium and added to wells in 100-µL aliquots of 2× concentrated solutions, in triplicates. To control wells, 100 µL of the medium were added. Cells were incubated with the studied compounds for 72 h at 37 °C and 95%/5% or 90%/10% (HEK 293 cells) CO2 atmosphere. Then, 20-µL aliquots of MTT solution in PBS (4 mg/mL) were added to all wells and plates were incubated further for 3 h in 37 °C. Formazan crystals formed were dissolved in 100 µL of DMSO and the absorbance of the solutions was measured using a multiwell plate reader (Spark, Tecan, Männedorf, Switzerland) at λ = 540 nm. Cytotoxicity was determined compared to the drug-free control. All experiments were performed in triplicates.

HEK 293 [3] = test: cells; format: cell-based, human; conditions: Homo sapiens, HEK293; HEK 293, 72 h, MTT
Experimental: as §3, §4

[4] = system: S. epidermidis ATCC 12228; test: microbe, parasite or virus in culture; format: cell-based, Staphylococcus epidermidis; conditions: Staphylococcus epidermidis, ATCC12228; S. epidermidis ATCC 12228, MHB
Experimental: as §1, §2

LLC-PK1 = test: cells; format: cell-based, pig; conditions: Sus scrofa; LLC-PK1, 72 h, MTT
Experimental: as §3, §4

E. coli ATCC 25,922 = test: Resistance induction by serial passage on MHA plates; format: cell-based, Escherichia coli; conditions: passaged with CIP 0.012 μM or 3 0.012 μM
HL-60 = test: ROS generation (CM-H2DCFDA, flow cytometry); format: cell-based, human; conditions: human, 100 µM
Experimental: (§5) In the positive controls treated with H2O2, the fraction of ROS-positive cells exceeded 75%. […] Strikingly, in HL-60, a biologically significant effect was observed almost immediately (after 15 min of incubation). The same was noted after 1 h in the HEK 293 cell line. […] Similarly, conjugates 4 and 5 generated ROS at the low level (less than 15% for HL-60 and less than 20% for HEK 293) (manuscript in preparation). […] For HL-60, the critical level of ROS was noted after 15 min of incubation.
(§6) ROS generation activity was evaluated as described previously. Briefly, HEK 293 cells were seeded on 35-mm Petri dishes in the amount of 15,000 cells per plate for 24 h in DMEM medium. […] Positive controls contained 250 µM H2O2, while negative controls were without any additions. After 0.5, 2.5, 5.5, and 24 h of incubation at 37 °C, the CM-H2DCFDA molecular probe (Thermo Fischer Scientific, Waltham, USA) was added to the plates and incubation was continued for another 0.5 h. The HEK 293 cells were detached with 0.05% trypsin solution in PBS and HBSS (Hank’s Balanced Salt Solution) and suspended in fresh DMEM medium. All samples were additionally stained with 7-AAD (7-aminoactinomycin D, 0.8 µg/mL) and immediately analysed with a Guava easyCyte flow cytometer (Merc, Burlington, USA). The determinations were performed in triplicates.

HEK 293 [5] = test: ROS generation (CM-H2DCFDA, flow cytometry); format: cell-based, human; conditions: human, 500 µM
Experimental: as §5, §6

## O=C(O)c1cn(C2CC2)c2cc(N3CCNCC3)c(F)cc2c1=O [CIP, ciprofloxacin]
P. aeruginosa ATCC 27853
  MIC50: 0.4 µM (≈ 0.133 µg/mL)
  MIC90: 0.4 µM (≈ 0.133 µg/mL)
S. aureus ATCC 29,213
  Increase of MIC compared to the control after passaging: 2 fold
E. coli ATCC 25922
  MIC50: < 0.0125 µM
  MIC90: 0.0125 µM (≈ 0.00414 µg/mL)
[1]
  Topoisomerase II inhibition at the highest used concentration: residual activity
[2]
  MIC50 range over tested bacteria: 0.0125 to 0.8 µM
  MIC90, upper end of range over tested bacteria: ≤ 1.6 µM
Human red blood cells
  Hemolytic effect: do not cause a hemolytic effect
S. aureus ATCC 29213
  MIC50: 0.2 µM (≈ 0.0663 µg/mL)
  MIC90: 0.2 µM (≈ 0.0663 µg/mL)
Hep G2
  IC50: > 200 µM
HEK 293 [3]
  IC50: > 200 µM
[4]
  MIC50: 0.8 µM (≈ 0.265 µg/mL)
  MIC90: 1.6 µM (≈ 0.53 µg/mL)
LLC-PK1
  IC50: > 200 µM
E. coli ATCC 25,922
  Increase of MIC after the 5th passage: 8 fold
  Increase of MIC after the 10th passage: 8 fold
HL-60
  Incubation time at which significant/critical ROS level was noted: 15 min
HL-60; 3 h
  Dot plot quadrant LB: 96.2 ± 2.6
  Dot plot quadrant LT: 1.1 ± 1.5
  Dot plot quadrant RB: 2.6 ± 1.6
  Dot plot quadrant RT: 0.7 ± 0.7
HL-60; 6 h
  Dot plot quadrant LB: 97.5 ± 1.2
  Dot plot quadrant LT: 0.4 ± 0.3
  Dot plot quadrant RB: 2.1 ± 1.3
  Dot plot quadrant RT: 0.0 ± 0.0
HL-60; 24 h
  Dot plot quadrant LB: 99.7 ± 0.2
  Dot plot quadrant LT: 0.1 ± 0.1
  Dot plot quadrant RB: 0.2 ± 0.1
  Dot plot quadrant RT: 0.0 ± 0.0
HEK 293 [5]
  Incubation time at which significant ROS effect was noted: 1 h
